Measurements: patent EP4678643A1, “KRAS INHIBITOR COMPOUND, PHARMACEUTICAL COMPOSITION THEREOF, AND USE THEREOF” (Sunshine Lake Pharma Co., Ltd., priority 2023, dated 2024)
Where two headings read alike, the source gives them in different places.

Columns and labels:
[1] = test system: pERK in HCT 116 cells (KRAS p.G13D); assay: Inhibitory effect on intracellular pERK by In-Cell Western assay, HCT 116; format: cell-based; details: Homo sapiens, pERK inhibition, compound incubation 3 h
Method: (§1) 1. Determination of Inhibitory Effect on Intracellular pERK by In-Cell Western Assay
(§2) (1) On the first day, the following cells were revived and cultured with the corresponding culture medium and incubated at 37 °C, 5% CO2 until confluence.
(§3) (2) On the third day, the culture medium was removed, the cells were rinsed once with DPBS, 2 mL of TrypLE™ trypsin was added for digestion, and the cells were placed at room temperature until the cells detached. (3) 5 mL fresh culture medium was added to resuspend cells to terminate the digestion, and the cells were gently pipetted and centrifuged at 1000 rpm for 5 minutes at room temperature. (4) The supernatant was removed, and 5 mL fresh culture medium was added to resuspend the cells and count cells. (5) The cells were plated in a 384-well plate with appropriate cell concentration by adjusting with complete culture medium and incubated at 37 °C, 5% CO2 for overnight. (6) 200 nL of the prepared serial dilution compound (DMSO final concentration was 0.5%) was added and incubated at 37 °C, CO2 for 3 h (HPAC cell lines for 1 h). (7) The cells were fixed. (8) The cells were washed twice with PBS. (9) The blocking solution was added and the cells were incubated at room temperature for 1 h. (10) The blocking solution was removed, and the primary antibody (phospho-ERK Rabbit mAb + GAPDH (D4C6R) Mouse mAb) was added and the cells were incubated at 4 °C for overnight. (11) The cells were washed twice with PBST (PBS + 0.05% Tween 20) for 2 minutes each time. (12) PBST was removed and secondary antibody (IRDye 800CW Goat anti-Rabbit IgG (H+L) + IRDye 680RD Goat anti Mouse IgG (H+L)) was added and incubated away from light at room temperature. (14) Secondary antibody was discarded and the cell was washed twice with PBST, 2 minutes each time. (15) 384-well plate was inverted and centrifuged at 1000 rpm at room temperature for 1 minute, and the 384-well plate was scanned with Odyssey CLx. (16) Data analysis: • a) Assay stability check was peformed by using DMSO and reference control data: [formula] [formula] • b) nonlinear fitting of Compound IC50: Y = Bottom + (Top−Bottom)/(1+10^(∧)((LogIC50−X)×HillSlope)). [formula]

KRAS G12D-GTP & cRAF = KRAS G12D-GTP & cRAF (Homo sapiens, UniProt P01116, G12D); assay: KRAS G12D/cRAF Binding Assay (HTRF); details: competitive binding, 665/615 nm ratio
Chain of KRAS G12D-GTP & cRAF (P01116 1-188 isoform P01116-2 G12D): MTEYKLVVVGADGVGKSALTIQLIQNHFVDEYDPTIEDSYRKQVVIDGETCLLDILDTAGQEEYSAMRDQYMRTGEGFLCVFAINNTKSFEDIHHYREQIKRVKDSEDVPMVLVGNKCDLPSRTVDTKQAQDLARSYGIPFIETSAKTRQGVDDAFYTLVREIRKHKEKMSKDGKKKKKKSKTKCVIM
From the text: 2. KRAS G12D/cRAF Binding Assay

[2] = test system: pERK in AGS cells (KRAS G12D); assay: Inhibitory effect on intracellular pERK by In-Cell Western assay, AGS; format: cell-based; details: pERK inhibition, compound incubation 3 h, read-out: AGS, IC50 (nM) KRAS p.G12D
Method: as §1, §2
as §3, with “CLx.” for “CLx. (16) Data analysis: • a) Assay stability check was peformed by using DMSO and reference control data: [formula] [formula] • b) nonlinear fitting of Compound IC50: Y = Bottom + (Top−Bottom)/(1+10^(∧)((LogIC50−X)×HillSlope)). [formula]”

KRAS G12D-GTP & SOS1 = KRAS G12D-GTP & SOS1 (Homo sapiens, UniProt P01116, G12D); assay: KRAS G12D/SOS1 Binding Assay (HTRF); details: competitive binding, 665/615 nm ratio
Chain of KRAS G12D-GTP & SOS1 (P01116 1-188 isoform P01116-2 G12D): as above
From the text: 3. KRAS G12D/SOS1 Binding Assay

[3] = test system: pERK in MKN1 cells (KRAS WTdep); assay: Inhibitory effect on intracellular pERK by In-Cell Western assay, MKN1; format: cell-based; details: Homo sapiens, MKN-1, pERK inhibition, compound incubation 3 h
Method: as §1, §2, §3

[4] = test system: pERK in A549 cells (KRAS p.G12S); assay: Inhibitory effect on intracellular pERK by In-Cell Western assay, A549; format: cell-based; details: Homo sapiens, pERK inhibition, compound incubation 3 h
Method: as §1, §2, §3

[5] = test system: pERK in H358 cells (KRAS p.G12C); assay: Inhibitory effect on intracellular pERK by In-Cell Western assay, H358; format: cell-based; details: Homo sapiens, NCI-H358, pERK inhibition, compound incubation 3 h
Method: as §1, §2, §3

[6] = mouse, in vivo
Method: Pharmacokinetic evaluation of the compounds of the present invention by intravenous injection or oral gavage in mice
The inventors conducted a pharmacokinetic evaluation of the compounds of this invention in mice.
The compounds of the present invention were administered to test animals in the form of a solution of 5% DMSO + 30% PEG400 + 65% saline, 10% DMSO + 10% Kolliphor HS15 + 80% Saline, 10% DMSO + 89% (25% SBE-B-CD) + (2% HCl), 20% PEG400 + 80% sterile water for injection, or 10% DMA + 10% HS15 + 30% PEG400 + 50% sterile water for injection. The animals were fasted for 12 hours before administration and had free access to water. For the intravenous administration group, the dose was 2 mg/kg/day, qd. Venous blood samples (approximately 0.15 mL) were collected at the following time points after administration: 0.083, 0.25, 0.5, 1.0, 2.0, 5.0, 7.0 and 24 hours. EDTA-K2 was pre-added to the blood collection tube as an anticoagulant. Blood samples were centrifuged at 12,000 rpm for 2 minutes, and plasma was collected and stored at -20°C or -70°C. For the intravenous administration group, the dose was 5 mg/kg/day, qd. Venous blood samples (approximately 0.15 mL) were collected at the following time points after administration: 0.25, 0.5, 1.0, 2.0, 5.0, 7.0 and 24 hours. EDTA-K2 was pre-added to the blood collection tube as an anticoagulant. Blood samples were centrifuged at 12,000 rpm for 2 minutes, and plasma was collected and stored at -20°C or -70°C.
The collected plasma samples were processed (frozen plasma was thawed at room temperature and vortexed for 15 seconds. 10-20 µL of plasma was added to 120-150 µL of acetonitrile solution containing the internal standard and vortexed for 5 minutes. The sample was centrifuged at 4,000 rpm for 5 minutes. 100 µL of the supernatant was added to 120-150 µL of methanol/water (v/v = 1/1) and mixed). The concentrations of the compounds in the plasma were analyzed by LC-MS/MS.

[7] = test system: pERK in HPAC cells (KRAS p.G12D); assay: Inhibitory effect on intracellular pERK by In-Cell Western assay, HPAC; format: cell-based; details: Homo sapiens, pERK inhibition, compound incubation 1 h, read-out: HPAC, IC50 (nM) KRASp.G12D
Method: as §1, §2
as §3, with “[formula] • b) nonlinear fitting of Compound IC50: Y = Bottom + (Top−Bottom)/(1+10^(∧)((LogIC50−X)×HillSlope)). [formula]” left out

[8] = test system: pERK in NCI-H727 cells (KRAS p.G12V); assay: Inhibitory effect on intracellular pERK by In-Cell Western assay, NCI-H727; format: cell-based; details: Homo sapiens, pERK inhibition, compound incubation 3 h
Method: as §1, §2
as §3, with “[formula] • b) nonlinear fitting of Compound IC50: Y = Bottom + (Top−Bottom)/(1+10^(∧)((LogIC50−X)×HillSlope)). [formula]” left out

Row | SMILES | IC50 [1] [nM] | IC50 (KRAS G12D-GTP & cRAF) [nM] | IC50 [2] [nM] | IC50 (KRAS G12D-GTP & SOS1) [nM] | IC50 [3] [nM] | IC50 [4] [nM] | IC50 [5] [nM] | pharmacokinetic properties in mice [6] | IC50 [7] [nM] | IC50 [8] [nM] | IC50 ([2]; Homo sapiens, AGS, 3 h) [nM]
1 | C#Cc1c(F)ccc2cc(O)cc(-c3nc(C#CC)c4c(N5CCCOCC5)nc(OCC56CCCN5CC(F)C6)nc4c3F)c12 (centres unmarked) [Compound 1] | 2.1 | 7.9 | 0.2 | 16.3 | 1.9 | 0.6 | 0.4 | good pharmacokinetic properties | 0.3 | 1 | –
2 | C#Cc1c(F)ccc2cc(O)cc(-c3nc(C#CCC)c4c(N5CCCOCC5)nc(OCC56CCCN5CC(F)C6)nc4c3F)c12 (centres unmarked) [Compound 3] | – | 7.4 | – | 14.8 | 3.7 | – | 0.7 | – | 0.6 | 2.2 | 0.5
